Consider 13 compounds from ChEMBL document CHEMBL1142685, “Novel anticholinesterases based on the molecular skeletons of furobenzofuran and methanobenzodioxepine” (J Med Chem, 2005).

Bounds are passed on as bounds.

One may read the IC50 as the concentration at which inhibition is half-maximal. A higher IC50 goes with weaker potency.

Assay [1] deals with Cholinesterase (Homo sapiens, UniProt P06276).
Description: Inhibitory concentration against human plasma Butyrylcholinesterase
The target of assay [2] is Acetylcholinesterase (Homo sapiens, UniProt P22303).
Description: Inhibitory concentration against human erythrocyte Acetylcholinesterase
Assay [3] relates to SK-N-SH. The assay can be described thus: Reduction in Amyloid-beta precursor protein levels in Human SK-N-SH cells at 10 uM. The class given is functional.

Acetylcholinesterase, sequence (P22303 whole entry): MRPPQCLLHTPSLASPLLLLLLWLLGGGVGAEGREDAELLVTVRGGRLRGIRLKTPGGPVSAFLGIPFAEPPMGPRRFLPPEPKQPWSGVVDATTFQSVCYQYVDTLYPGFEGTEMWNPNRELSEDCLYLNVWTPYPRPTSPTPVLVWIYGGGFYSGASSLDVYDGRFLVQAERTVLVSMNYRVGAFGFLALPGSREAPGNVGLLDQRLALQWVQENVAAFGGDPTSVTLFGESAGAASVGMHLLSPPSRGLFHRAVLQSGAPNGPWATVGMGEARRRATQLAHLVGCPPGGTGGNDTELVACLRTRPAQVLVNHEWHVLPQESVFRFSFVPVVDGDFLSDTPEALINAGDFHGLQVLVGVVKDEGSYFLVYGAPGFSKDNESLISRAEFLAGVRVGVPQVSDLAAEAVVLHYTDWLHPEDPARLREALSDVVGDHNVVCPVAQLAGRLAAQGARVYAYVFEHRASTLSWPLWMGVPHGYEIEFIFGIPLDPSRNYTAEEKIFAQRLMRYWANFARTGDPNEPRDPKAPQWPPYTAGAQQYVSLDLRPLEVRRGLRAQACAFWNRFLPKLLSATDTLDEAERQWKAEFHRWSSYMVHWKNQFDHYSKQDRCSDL
Cholinesterase, sequence (P06276 whole entry): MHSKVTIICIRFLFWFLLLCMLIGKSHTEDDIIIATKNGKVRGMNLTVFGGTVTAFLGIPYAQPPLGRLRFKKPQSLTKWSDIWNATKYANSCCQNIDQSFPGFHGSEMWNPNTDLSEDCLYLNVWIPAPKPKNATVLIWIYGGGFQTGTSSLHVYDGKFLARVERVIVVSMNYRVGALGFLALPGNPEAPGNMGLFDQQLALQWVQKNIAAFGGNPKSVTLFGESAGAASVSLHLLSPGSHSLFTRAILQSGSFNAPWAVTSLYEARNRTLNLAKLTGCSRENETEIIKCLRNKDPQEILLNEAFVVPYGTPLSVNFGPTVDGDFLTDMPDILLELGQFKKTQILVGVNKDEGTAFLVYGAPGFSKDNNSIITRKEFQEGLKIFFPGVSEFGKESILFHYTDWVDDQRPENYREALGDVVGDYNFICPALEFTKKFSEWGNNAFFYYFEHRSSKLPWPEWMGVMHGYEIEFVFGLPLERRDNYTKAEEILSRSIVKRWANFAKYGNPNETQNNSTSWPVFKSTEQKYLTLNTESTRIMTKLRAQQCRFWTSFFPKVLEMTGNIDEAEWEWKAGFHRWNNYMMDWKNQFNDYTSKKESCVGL

In assay [1], `Cc1ccccc1NC(=O)Oc1ccc2c(c1)C1(C)CCOC1O2` (configuration not stated) gave a 50% inhibitory concentration (IC50) of over 30000 nM.

In the case of `CCNC(=O)Oc1ccc2c(c1)C1(C)CCOC1O2` (configuration not stated), the values for the IC50 in assay [1] and in assay [2] were 6 nM and 360 nM, respectively.

For the compound `CCNC(=O)Oc1ccc2c(c1)[C@]1(C)CCOC1N2C` (some centres not stated), the IC50 stood at 2 nM in assay [1] and 82 nM in assay [2].

Turning to `CC(C)c1ccc(NC(=O)Oc2ccc3c(c2)C2(C)COC(C2)O3)cc1` (configuration not stated), the figures for the IC50 in assay [1] and in assay [2] were 22 nM and 4300 nM, respectively.

As for `CCNC(=O)Oc1ccc2c(c1)[C@]1(C)CCN(C)C1N2C` (some centres not stated), the IC50 in assay [1] worked out at 4 nM; in assay [2], 94 nM.

The compound `CC(C)c1ccc(NC(=O)Oc2ccc3c(c2)C2(C)CCOC2O3)cc1` (configuration not stated) showed an IC50 in assay [1] of 27 nM.

Consider `Cc1ccccc1NC(=O)Oc1ccc2c(c1)[C@]1(C)CCOC1N2C` (some centres not stated), for which the IC50 was determined as 1560 nM in assay [1] and 13 nM in assay [2].

The compound `CN1CC[C@@]2(C)c3cc(OC(=O)Nc4ccccc4)ccc3N(C)[C@@H]12` [PHENSERINE] registered a Reduction in assay [3] of 50%.

For the compound `CC(C)c1ccc(NC(=O)Oc2ccc3c(c2)[C@]2(C)CCOC2N3C)cc1` (some centres not stated), the values for the half-maximal inhibitory concentration (IC50) in assay [1] and in assay [2] were 17 nM and 3860 nM, respectively.

As to `CCNC(=O)Oc1ccc2c(c1)C1(C)COC(C1)O2` (configuration not stated), it took 24 nM to reach half-maximal inhibition in assay [1] (IC50).

Take `CNC(=O)Oc1ccc2c(c1)[C@]1(C)CCOC1N2C` (some centres not stated): the IC50 in assay [1] was found to be 4 nM; in assay [2], 27 nM.

For the compound `CCc1ccccc1NC(=O)Oc1ccc2c(c1)[C@]1(C)CC[N+](C)([O-])[C@@H]1N2C` (some centres not stated), the IC50 in assay [1] is 1700 nM; in assay [2], 125 nM.

Take `Cc1ccccc1NC(=O)Oc1ccc2c(c1)C1(C)COC(C1)O2` (configuration not stated): the results for the IC50 in assay [1] and in assay [2] were over 30000 nM and 56 nM, respectively.
